# Measurements from the supplement of paper PMC11208160.
# Test: recombinant UMI read abundance after kanamycin selection (control-corrected) (log10(CPM+1)); higher = more efficient recombination; extreme values may be limits of the assay; sequences stand for … in AGTGCAGAGAAAATCGGCCAGTTTTCTCTGCCTGCAGTCCGCATGCCGTGGGACCCCTTGGGTTCTAACCTGTTGCCTAGATTTATGCAGCGGACTGCCTTTCTCCCAAAGTGATAAACCGG…AGGTTGGTTTCACT; site = the 11-nt donor
# Procedure: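 Pooled E. coli donor-specificity screen for the IS621 bridge recombinase. Each library member carries a reprogrammed 11-nt donor and a full-length LE bridge RNA expressed in cis from the natural promoter, with a paired donor-binding loop (8-nt LDG + 4-nt RDG) and a target-binding loop fixed to T5. It is co-electroporated with a T5 target plasmid; recombinase is induced with 0.07 mM IPTG and recombinants are selected on kanamycin. UMIs are counted as CPM, averaged over two biological replicates and corrected by the unselected control. Molecule = full bridge RNA written as DNA, built from the T5 scaffold: LDG = donor specificity nt 1-8, RDG = reverse complement of nt 8-11.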
# 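Note: IS621 bridge recombinase in Escherichia coli cells against a fixed T5 target plasmid.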
row,Sequence,recombinant UMI read abundance (log10)
1,AAAACTGCATGGACCGGTTTTCCCGGTAATCCGTATTTGAA (site AAAACTGCTTT),0.637
2,AAAAGATCATGGACCGGTTTTCCCGGTAATCCGTATTTGGA (site AAAAGATCTTC),1.94
3,AAAAGATCATGGACCGGTTTTCCCGGTAATCCGTATTTGGC (site AAAAGATCTGC),2.65
4,AAACACGCATGGACCGGTTTTCCCGGTAATCCGTATTTGGG (site AAACACGCTCC),0.227
5,AAACACGCATGGACCGGTTTTCCCGGTAATCCGTATTTGGG (site AACCACGCTCC),0.0138
6,AAACACGCATGGACCGGTTTTCCCGGTAATCCGTATTTGGG (site AAGCACGCTCC),0.0101
7,AAACACGCATGGACCGGTTTTCCCGGTAATCCGTATTTGGG (site AATCACGCTCC),0.0344
8,AAACAGACATGGACCGGTTTTCCCGGTAATCCGTATTTGGA (site AAACAGACTTC),0.991
9,AAACGAACATGGACCGGTTTTCCCGGTAATCCGTATTTGTC (site AAACGAACTGA),1.58
10,AAACGAACATGGACCGGTTTTCCCGGTAATCCGTATTTGTC (site ACACGAACTGA),0.524
11,AAACGAACATGGACCGGTTTTCCCGGTAATCCGTATTTGTC (site AGACGAACTGA),0
12,AAACGAACATGGACCGGTTTTCCCGGTAATCCGTATTTGTC (site ATACGAACTGA),0.767
13,AAACGAGCATGGACCGGTTTTCCCGGTAATCCGTATTTGAG (site AAACGAGCTCT),1.78
14,AAACGTCCATGGACCGGTTTTCCCGGTAATCCGTATTTGAT (site AAACGTCCTAT),0.701
15,AAACGTCCATGGACCGGTTTTCCCGGTAATCCGTATTTGAT (site AACCGTCCTAT),0.00727
16,AAACGTCCATGGACCGGTTTTCCCGGTAATCCGTATTTGAT (site AAGCGTCCTAT),0.266
17,AAACGTCCATGGACCGGTTTTCCCGGTAATCCGTATTTGAT (site AATCGTCCTAT),0.0129
18,AAAGACCCATGGACCGGTTTTCCCGGTAATCCGTATTTGGT (site AAAGACCCTAC),1.02
19,AAAGCGCCATGGACCGGTTTTCCCGGTAATCCGTATTTGTG (site AAAGCGCCTCA),0.207
20,AAAGCGCCATGGACCGGTTTTCCCGGTAATCCGTATTTGTG (site CAAGCGCCTCA),0.017
21,AAAGCGCCATGGACCGGTTTTCCCGGTAATCCGTATTTGTG (site GAAGCGCCTCA),0.0199
22,AAAGCGCCATGGACCGGTTTTCCCGGTAATCCGTATTTGTG (site TAAGCGCCTCA),0.019
23,AAAGGCTCATGGACCGGTTTTCCCGGTAATCCGTATTTGCG (site AAAGGCTCTCG),2.61
24,AAAGTAACATGGACCGGTTTTCCCGGTAATCCGTATTTGCT (site AAAGTAACTAG),2.89

row,Sequence,recombinant UMI read abundance (log10)
1,AAAGTAACATGGACCGGTTTTCCCGGTAATCCGTATTTGCT (site AACGTAACTAG),2.06
2,AAAGTAACATGGACCGGTTTTCCCGGTAATCCGTATTTGCT (site AAGGTAACTAG),1.66
3,AAAGTAACATGGACCGGTTTTCCCGGTAATCCGTATTTGCT (site AATGTAACTAG),2.1
4,AAAGTATCATGGACCGGTTTTCCCGGTAATCCGTATTTGCA (site AAAGTATCTTG),2.86
5,AAAGTATCATGGACCGGTTTTCCCGGTAATCCGTATTTGCA (site ACAGTATCTTG),2.64
6,AAAGTATCATGGACCGGTTTTCCCGGTAATCCGTATTTGCA (site AGAGTATCTTG),2.83
7,AAAGTATCATGGACCGGTTTTCCCGGTAATCCGTATTTGCA (site ATAGTATCTTG),2.62
8,AAAGTATCATGGACCGGTTTTCCCGGTAATCCGTATTTGCT (site AAAGTATCTAG),2.73
9,AAAGTATCATGGACCGGTTTTCCCGGTAATCCGTATTTGCT (site ACAGTATCTTG),0
10,AAAGTGTCATGGACCGGTTTTCCCGGTAATCCGTATTTGAC (site AAAGTGTCTGT),2.37
11,AAAGTGTCATGGACCGGTTTTCCCGGTAATCCGTATTTGAC (site AACGTGTCTGT),0
12,AAAGTGTCATGGACCGGTTTTCCCGGTAATCCGTATTTGAC (site AAGGTGTCTGT),0
13,AAAGTGTCATGGACCGGTTTTCCCGGTAATCCGTATTTGAC (site AATGTGTCTGT),0.497
14,AAAGTTGCATGGACCGGTTTTCCCGGTAATCCGTATTTGAT (site AAAGTTGCTAT),2.62
15,AAATCTACATGGACCGGTTTTCCCGGTAATCCGTATTTGTG (site AAATCTACTCA),0.209
16,AAATCTACATGGACCGGTTTTCCCGGTAATCCGTATTTGTG (site ACATCTACTCA),0.0169
17,AAATCTACATGGACCGGTTTTCCCGGTAATCCGTATTTGTG (site AGATCTACTCA),0.0155
18,AAATCTACATGGACCGGTTTTCCCGGTAATCCGTATTTGTG (site ATATCTACTCA),0.0108
19,AACAAGACATGGACCGGTTTTCCCGGTAATCCGTATTTGAC (site AACAAGACTGT),2.21
20,AACAGTCCATGGACCGGTTTTCCCGGTAATCCGTATTTGAT (site AACAGTCCTAT),0.504
21,AACAGTCCATGGACCGGTTTTCCCGGTAATCCGTATTTGAT (site AACCGTCCTAT),0.00935
22,AACAGTCCATGGACCGGTTTTCCCGGTAATCCGTATTTGAT (site AACGGTCCTAT),0.0119
23,AACAGTCCATGGACCGGTTTTCCCGGTAATCCGTATTTGAT (site AACTGTCCTAT),0
24,AACCAAACATGGACCGGTTTTCCCGGTAATCCGTATTTGAG (site AACCAAACTCT),1.48

row,Sequence,recombinant UMI read abundance (log10)
1,AACCAAGCATGGACCGGTTTTCCCGGTAATCCGTATTTGAG (site AACCAAGCTCT),1.8
2,AACCAAGCATGGACCGGTTTTCCCGGTAATCCGTATTTGAG (site ACCCAAGCTCT),0.33
3,AACCAAGCATGGACCGGTTTTCCCGGTAATCCGTATTTGAG (site AGCCAAGCTCT),0.217
4,AACCAAGCATGGACCGGTTTTCCCGGTAATCCGTATTTGAG (site ATCCAAGCTCT),0.642
5,AACCACGCATGGACCGGTTTTCCCGGTAATCCGTATTTGGG (site AAACACGCTCC),0.0131
6,AACCACGCATGGACCGGTTTTCCCGGTAATCCGTATTTGGG (site AACCACGCTCC),0.0319
7,AACCACGCATGGACCGGTTTTCCCGGTAATCCGTATTTGGG (site AAGCACGCTCC),0
8,AACCACGCATGGACCGGTTTTCCCGGTAATCCGTATTTGGG (site AATCACGCTCC),0.00485
9,AACCGTACATGGACCGGTTTTCCCGGTAATCCGTATTTGAT (site AACCGTACTAT),1
10,AACCGTACATGGACCGGTTTTCCCGGTAATCCGTATTTGAT (site AACCGTCCTAT),0.0158
11,AACCGTACATGGACCGGTTTTCCCGGTAATCCGTATTTGAT (site AACCGTGCTAT),0.108
12,AACCGTACATGGACCGGTTTTCCCGGTAATCCGTATTTGAT (site AACCGTTCTAT),0
13,AACCGTCCATGGACCGGTTTTCCCGGTAATCCGTATTTGAC (site AACCGTCCTAT),0
14,AACCGTCCATGGACCGGTTTTCCCGGTAATCCGTATTTGAC (site AACCGTCCTCT),0.0147
15,AACCGTCCATGGACCGGTTTTCCCGGTAATCCGTATTTGAC (site AACCGTCCTGT),0.786
16,AACCGTCCATGGACCGGTTTTCCCGGTAATCCGTATTTGAC (site AACCGTCCTTT),0.477
17,AACCGTCCATGGACCGGTTTTCCCGGTAATCCGTATTTGAG (site AACCGTCCTAT),0.0112
18,AACCGTCCATGGACCGGTTTTCCCGGTAATCCGTATTTGAG (site AACCGTCCTCT),0.0226
19,AACCGTCCATGGACCGGTTTTCCCGGTAATCCGTATTTGAG (site AACCGTCCTGT),0
20,AACCGTCCATGGACCGGTTTTCCCGGTAATCCGTATTTGAG (site AACCGTCCTTT),0.00366
21,AACCGTCCATGGACCGGTTTTCCCGGTAATCCGTATTTGAT (site AAACGTCCTAT),0.00674
22,AACCGTCCATGGACCGGTTTTCCCGGTAATCCGTATTTGAT (site AACAGTCCTAT),0.0027
23,AACCGTCCATGGACCGGTTTTCCCGGTAATCCGTATTTGAT (site AACCATCCTAT),0.62
24,AACCGTCCATGGACCGGTTTTCCCGGTAATCCGTATTTGAT (site AACCCTCCTAT),0.00675
